The conditions of data set [1]: DTA.
The nature of data set [2]: Molar enthalpy of transition or fusion. Particulars: DSC.

Numbers after ± are expanded uncertainties.

Consider `CCCCCCCCCCCCCCCCCCCCCC` [docosane], for which the Triple point temperature in data set [1] (Crystal 1) came out at 318.08 ± 0.39 K; in data set [1] (Crystal 2), 317.22 ± 0.39 K. Also, the “Molar enthalpy of transition or fusion” value in data set [2] (Crystal 1) was 11.7 ± 0.382 kcal/mol; in data set [2] (Crystal 2) it was 6.92 ± 0.153 kcal/mol.

These data come from the NIST ThermoML archive (doi:10.1016/j.tca.2013.08.001).
